From PubChem BioAssay (NCI)
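48-hour exposure; five concentrations; linearly interpolated endpoints. Here, GI50 denotes the concentration required for 50% inhibition of growth. TGI: concentration producing complete growth inhibition.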

Experiments:
Test in all cases: NCI-60 cell line screen, 48 h
[1] = test system: 786-0 renal
[2] = test system: A498 renal
[3] = test system: A549 NSCLC
[4] = test system: ACHN renal
[5] = test system: BT-549 breast
[6] = test system: CAKI-1 renal
[7] = test system: CCRF-CEM leukemia
[8] = test system: COLO 205 colon
[9] = test system: DLD-1 colon
[10] = test system: DMS 114 small cell lung
[11] = test system: DMS 273 small cell lung
[12] = test system: DU-145 prostate
[13] = test system: EKVX NSCLC
[14] = test system: HCC-2998 colon
[15] = test system: HCT-116 colon
[16] = test system: HCT-15 colon
[17] = test system: HL-60(TB) leukemia
[18] = test system: HOP-18 NSCLC
[19] = test system: HOP-62 NSCLC
[20] = test system: HOP-92 NSCLC
[21] = test system: HT29 colon
[22] = test system: IGROV1 ovarian
[23] = test system: K-562 leukemia
[24] = test system: KM12 colon
[25] = test system: KM20L2 colon
[26] = test system: LOX IMVI melanoma
[27] = test system: LXFL 529 NSCLC
[28] = test system: M14 melanoma
[29] = test system: M19-MEL melanoma
[30] = test system: MALME-3M melanoma
[31] = test system: MCF7 breast
[32] = test system: MDA-MB-435
[33] = test system: MDA-N
[34] = test system: MOLT-4 leukemia
[35] = test system: NCI-H226 lung
[36] = test system: NCI-H23 lung
[37] = test system: NCI-H460 lung
[38] = test system: NCI-H522 lung
[39] = test system: OVCAR-3 ovarian
[40] = test system: OVCAR-4 ovarian
[41] = test system: OVCAR-5 ovarian
[42] = test system: OVCAR-8 ovarian
[43] = test system: PC-3 prostate
[44] = test system: RPMI-8226 leukemia
[45] = test system: RXF-631 renal
[46] = test system: SF-268 CNS
[47] = test system: SF-295 CNS
[48] = test system: SF-539 CNS
[49] = test system: SK-MEL-28 melanoma
[50] = test system: SK-MEL-5 melanoma
[51] = test system: SK-OV-3 ovarian
[52] = test system: SN12C renal
[53] = test system: SNB-19 CNS
[54] = test system: SNB-75 CNS
[55] = test system: SNB-78 CNS
[56] = test system: SR leukemia
[57] = test system: SW-620 colon
[58] = test system: T-47D breast
[59] = test system: TK-10 renal
[60] = test system: U251 CNS
[61] = test system: UACC-257 melanoma
[62] = test system: UACC-62 melanoma
[63] = test system: UO-31 renal
[64] = test system: RXF 393 renal

CCCC(=O)N[C@H]1CCc2cc(OC)c(OC)c(OC)c2-c2ccc(SC)c(=O)cc21
TGI [1]: 63.1 µM | TGI [2]: 0.39 µM | TGI [3]: > 100 µM | TGI [4]: > 57.1 µM | TGI [5]: < 0.01 µM | TGI [6]: 14.1 µM | TGI [7]: > 100 µM | TGI [8]: < 0.01 µM | TGI [9]: > 100 µM | TGI [10]: < 0.01 µM | TGI [11]: > 100 µM | TGI [12]: < 0.01 µM | TGI [13]: > 100 µM | TGI [14]: > 4.64 µM | TGI [15]: 0.176 µM | TGI [16]: > 100 µM | TGI [17]: < 0.01 µM | TGI [18]: > 100 µM | TGI [19]: > 91.2 µM | TGI [20]: 2.51 µM | TGI [21]: 0.724 µM | TGI [22]: > 100 µM | TGI [23]: > 100 µM | TGI [24]: < 0.01 µM | TGI [25]: < 0.01 µM | TGI [26]: > 100 µM | TGI [27]: > 100 µM | TGI [28]: 34.7 µM | TGI [29]: > 100 µM | TGI [30]: > 100 µM | TGI [31]: > 100 µM | TGI [32]: < 0.01 µM | TGI [33]: < 0.01 µM | TGI [34]: > 66.2 µM | TGI [35]: 0.215 µM | TGI [36]: 2.18 µM | TGI [37]: 0.0522 µM | TGI [38]: < 0.01 µM | TGI [39]: < 0.0423 µM | TGI [40]: > 100 µM | TGI [41]: > 100 µM | TGI [42]: > 15.8 µM | TGI [43]: > 100 µM | TGI [44]: > 100 µM | TGI [45]: 1.42 µM | TGI [46]: 62.7 µM | TGI [47]: < 0.01 µM | TGI [48]: < 0.01 µM | TGI [49]: > 100 µM | TGI [50]: < 0.0989 µM | TGI [51]: 5.75 µM | TGI [52]: > 91.8 µM | TGI [53]: > 94.6 µM | TGI [54]: 15.6 µM | TGI [55]: > 100 µM | TGI [56]: > 100 µM | TGI [57]: > 100 µM | TGI [58]: > 100 µM | TGI [59]: 99.9 µM | TGI [60]: 3.74 µM | TGI [61]: > 74.1 µM | TGI [62]: > 100 µM | TGI [63]: > 100 µM

CC(=O)OC(C(=O)[O][Sn]([CH3])([CH3])[CH3])c1ccccc1 (centres undefined)
GI50 [1]: > 100 µM | TGI [1]: > 100 µM | GI50 [2]: > 100 µM | TGI [2]: > 100 µM | GI50 [3]: > 100 µM | TGI [3]: > 100 µM | GI50 [4]: > 100 µM | TGI [4]: > 100 µM | GI50 [6]: > 100 µM | TGI [6]: > 100 µM | GI50 [7]: 63.4 µM | TGI [7]: > 100 µM | GI50 [8]: > 100 µM | TGI [8]: > 100 µM | GI50 [9]: > 100 µM | TGI [9]: > 100 µM | GI50 [10]: > 100 µM | TGI [10]: > 100 µM | GI50 [13]: > 100 µM | TGI [13]: > 100 µM | GI50 [14]: > 100 µM | TGI [14]: > 100 µM | GI50 [15]: > 100 µM | TGI [15]: > 100 µM | GI50 [16]: > 100 µM | TGI [16]: > 100 µM | GI50 [17]: > 100 µM | TGI [17]: > 100 µM | GI50 [18]: > 100 µM | TGI [18]: > 100 µM | GI50 [19]: > 100 µM | TGI [19]: > 100 µM | GI50 [20]: > 100 µM | TGI [20]: > 100 µM | GI50 [21]: > 100 µM | TGI [21]: > 100 µM | GI50 [22]: > 100 µM | TGI [22]: > 100 µM | GI50 [23]: > 100 µM | TGI [23]: > 100 µM | GI50 [24]: > 100 µM | TGI [24]: > 100 µM | GI50 [25]: > 100 µM | TGI [25]: > 100 µM | GI50 [26]: > 100 µM | TGI [26]: > 100 µM | GI50 [27]: 99.5 µM | TGI [27]: > 100 µM | GI50 [28]: > 100 µM | TGI [28]: > 100 µM | GI50 [29]: > 100 µM | TGI [29]: > 100 µM | GI50 [30]: > 100 µM | TGI [30]: > 100 µM | GI50 [34]: > 100 µM | TGI [34]: > 100 µM | GI50 [35]: > 100 µM | TGI [35]: > 100 µM | GI50 [36]: > 100 µM | TGI [36]: > 100 µM | GI50 [37]: > 100 µM | TGI [37]: > 100 µM | GI50 [38]: 19.9 µM | TGI [38]: 62.6 µM | GI50 [39]: > 100 µM | TGI [39]: > 100 µM | GI50 [40]: > 100 µM | TGI [40]: > 100 µM | GI50 [41]: > 100 µM | TGI [41]: > 100 µM | GI50 [42]: > 100 µM | TGI [42]: > 100 µM | GI50 [44]: > 100 µM | TGI [44]: > 100 µM | TGI [64]: 0.959 µM | GI50 [45]: > 100 µM | TGI [45]: > 100 µM | GI50 [46]: > 100 µM | TGI [46]: > 100 µM | GI50 [47]: > 100 µM | TGI [47]: > 100 µM | GI50 [48]: > 100 µM | TGI [48]: > 100 µM | GI50 [49]: > 100 µM | TGI [49]: > 100 µM | GI50 [50]: > 100 µM | TGI [50]: > 100 µM | GI50 [51]: > 100 µM | TGI [51]: > 100 µM | GI50 [52]: > 100 µM | TGI [52]: > 100 µM | GI50 [53]: > 100 µM | TGI [53]: > 100 µM | GI50 [54]: > 100 µM | TGI [54]: > 100 µM | GI50 [55]: > 100 µM | TGI [55]: > 100 µM | GI50 [56]: > 100 µM | TGI [56]: > 100 µM | GI50 [57]: > 100 µM | TGI [57]: > 100 µM | GI50 [59]: > 100 µM | TGI [59]: > 100 µM | GI50 [60]: > 100 µM | TGI [60]: > 100 µM | GI50 [61]: > 100 µM | TGI [61]: > 100 µM | GI50 [62]: > 100 µM | TGI [62]: > 100 µM | GI50 [63]: > 100 µM | TGI [63]: > 100 µM
